Reference: patent US7927622B1, “Methods of transnasal transport/immunization with highly adaptable carriers” (priority 1999, dated 2011)
Non-standard residues stand in square brackets, D forms with d. Residues, ends and D or L forms follow the SMILES beside them. dTrp(2-Me) = Cc1[nH]c2ccccc2c1C[C@@H](N)C(=O)O

Legend:
[1] = in vivo; cited from earlier work
[2] = in vivo; cited from earlier work; remark: listed apart in the source
[3] = in vivo; cited from earlier work; remark: listed apart in the source
A-receptor subtype = A-receptor subtype (Canis lupus familiaris, UniProt Q5D0K2); conditions: dog, in vivo; cited from earlier work
A-receptor subtype, sequence (Q5D0K2 whole entry): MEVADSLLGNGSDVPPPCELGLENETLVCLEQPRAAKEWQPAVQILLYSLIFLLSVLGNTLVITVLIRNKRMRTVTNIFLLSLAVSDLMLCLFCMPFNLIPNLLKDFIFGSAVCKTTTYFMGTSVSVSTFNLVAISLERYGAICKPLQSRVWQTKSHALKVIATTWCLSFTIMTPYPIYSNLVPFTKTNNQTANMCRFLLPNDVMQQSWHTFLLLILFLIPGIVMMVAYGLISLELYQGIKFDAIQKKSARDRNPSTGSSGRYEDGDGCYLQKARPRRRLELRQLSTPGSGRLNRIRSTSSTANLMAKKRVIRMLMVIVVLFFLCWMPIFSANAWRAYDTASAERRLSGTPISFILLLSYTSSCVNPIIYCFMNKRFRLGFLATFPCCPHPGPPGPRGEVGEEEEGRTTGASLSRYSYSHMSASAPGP

GH response = conditions: in vivo, cited from earlier work
[4] = cited from earlier work
anti-TT antibodies = tested on: anti-TT antibodies; parameters: species or system mice; conditions: mouse, in vivo
[5] = in vivo; cited from earlier work; remark: listed apart in the source
[6] = in vivo; cited from earlier work; remark: listed apart in the source
[7] = in vivo; cited from earlier work; remark: listed apart in the source
[8] = in vivo, cited from earlier work
[9] = rat, in vivo, sc; cited from earlier work
[10] = human, in vivo; cited from earlier work
[11] = human, in vivo, cited from earlier work
[12] = cited from earlier work; remark: listed apart in the source
[13] = cited from earlier work; remark: listed apart in the source
[14] = stomach and GI tract, cited from earlier work
[15] = with polyoxyethylene 9-lauryl ether (Laureth-9)

For “desglycinamide-[Arg8]vasopressin [DGAVP]”, the learning concrete words [1] is listed as “no positive effect”, the “reaction time for scanning of digits (Sternberg paradigm)” value [1] is listed as “reduced the reaction time” and the “short-term memory for abstract words” value [1] is listed as “improved short-term memory for abstract words in males but not in females”.

In the case of `NC(=O)CC[C@@H]1NC(=O)[C@H](Cc2ccccc2)NC(=O)[C@H](Cc2ccc(O)cc2)NC(=O)CCSSC[C@@H](C(=O)N2CCC[C@H]2C(=O)N[C@H](CCCN=C(N)N)C(=O)NCC(N)=O)NC(=O)[C@H](CC(N)=O)NC1=O` [DDAVP], the pain perception [2] is given as “no general effect”.

In the case of `CCNC(=O)[C@@H]1CCCN1C(=O)[C@H](CCCNC(=N)N)NC(=O)[C@H](CC(C)C)NC(=O)[C@@H](COC(C)(C)C)NC(=O)[C@H](Cc1ccc(O)cc1)NC(=O)[C@H](CO)NC(=O)[C@H](Cc1c[nH]c2ccccc12)NC(=O)[C@H](Cc1cnc[nH]1)NC(=O)[C@@H]1CCC(=O)N1` [buserelin], the “AFS mean pelvic score after treatment (from 24)” value [3] is listed as 7 and the “decrease of the size of the fibroids” value [3] is listed as 69%.

In the case of Hpa(SO3H)-Nle-Gly-Trp-Nle-MeAsp-Phe-NH2, the feeding (A-receptor subtype) is listed as “inhibited feeding”.

In the case of `Cc1[nH]c2ccccc2c1C[C@@H](NC(=O)[C@@H](N)Cc1cnc[nH]1)C(=O)N[C@@H](C)C(=O)N[C@@H](Cc1c[nH]c2ccccc12)C(=O)N[C@H](Cc1ccccc1)C(=O)N[C@@H](CCCCN)C(N)=O` [hexarelin] (H-H[dTrp(2-Me)]AW[dF]K-NH2), the “IGF-I and IGFBP-3 levels” value (GH response; po) is given as “slightly but significantly increased”, the GH response (GH response) is given as “not significantly higher than that induced by an injection of 1 μg GHRH/kg” and the IGF-I (GH response) is given as “did not significantly modify”. For the same molecule, the IGFBP-3 levels (GH response) was “increased”.

For GH: growth hormone protein, the “serum GH peak value” ([4]; i.v. 0.015 IU/kg) is listed as 128 µg/L, the “serum GH peak level” value ([4]; s.c. 0.10 IU/kg) is listed as “around 14 μg/L” and the “serum IGF-I levels” value ([4]; s.c. administration only) is listed as “increased significantly”. The bioavailability ([4]; s.c. injection) was 50%.

In the case of monophosphoryl Lipid A [LA], the “dependence of immune response on LA” value (anti-TT antibodies) is reported as “no strong dependence was found”, the “dose dependence of TT-specific increase in serum absorbance” value (anti-TT antibodies) is reported as “reverting this trend” and the “effect of LA with purified TT” value (anti-TT antibodies) is reported as “profited from the presence of LA”.

In the case of GHRP-2, the “response to intranasal GHRP-2” value [5] is given as “significant, but not quantitated, response”.

For `NC(=O)CC[C@@H]1NC(=O)[C@H](Cc2ccccc2)NC(=O)[C@H](Cc2ccc(O)cc2)NC(=O)[C@@H](N)CSSC[C@@H](C(=O)N2CCC[C@H]2C(=O)N[C@@H](CCCN=C(N)N)C(=O)NCC(N)=O)NC(=O)[C@H](CC(N)=O)NC1=O` [vasopressin], the nocturnal slow-wave sleep [6] is listed as “enhance nocturnal slow-wave sleep”.

In the case of `NC(=O)CC[C@@H]1NC(=O)[C@H](Cc2ccccc2)NC(=O)[C@H](Cc2ccc(O)cc2)NC(=O)[C@@H](N)CSSC[C@@H](C(=O)N2CCC[C@H]2C(=O)N[C@@H](CCCN=C(N)N)C(=O)NCC(N)=O)NC(=O)[C@H](CC(N)=O)NC1=O` [AVP], the memory performance [7] is given as “enhanced memory performance”, the “plasma vasopressin increase after i.v. relative to the other route” value ([8]; iv) is given as “exceeding 2000 fold” and the “P3 component of the ERP” value [8] is given as “substantially increased”.

In the case of Salmon calcitonin, the “effectiveness of the invasive method relative to nasal” value [9] is listed as “approximately 2 times”, the osteopenic changes [9] is listed as “prevented the osteopenic changes” and the “decrease in serum 1,25-dihydroxyvitamin D” value [10] is listed as 14%. The “inhibition of the increase in fasting 2 h urinary hydroxyproline/creatinine ratio (OHPr/Cr)” value [10] was 40%, the “lowering of the increase in calcium/creatinine ratio (Ca/Cr)” value [10] was 80% and the “pain scores (visual analog scale)” value [10] was “did not influence the pain scores”. For the same molecule, the tolerability [10] was “well tolerated”.

For CCK-8, the “auditory event related potential (AERP)” value ([11]; iv) is given as “shown to affect the auditory event related potential (AERP)”, the “plasma CCK-8 concentrations vs 0.25 μg i.v.” value [11] is given as “comparable” and the “plasma CCK-8 concentrations vs 2.5 μg i.v.” value [11] is given as “substantially lower”.

B1: rhG-CSF: recombinant human granulocyte colony-stimulating factor, MW=19600 (protein, UniProt P09919 31-207, looked up)
Granulocyte …: TPLGPASSLPQSFLLKCLEQVRKIQGDGAALQEKLVSECATYKLCHPEELVLLGHSLGIPWAPLSSCPSQALQLAGCLSQLHSGLFLYQGLLQALEGISPELGPTLDTLQLDVADFATTIWQQMEELGMAPALQPTQGAMPAFASAFQRRAGGVLVASHLQSFLEVSYRVLRHLAQP
For B1, the “total leukocyte numbers in peripheral blood” value ([12]; nasal, pH 4, with or without dimethyl-β-cyclodextrin) is given as “increased”, the absorption with excipients ([12]; with dimethyl-β-cyclodextrin) is given as “improved the absorption of rhG-CSF appreciably” and the “availability from leukocyte stimulation counts” value ([13]; nasal, t=48 h) is given as 5-10%. For the same molecule, the “relative bioavailability compared to s.c. injection (plasma AUC)” value ([13]; rat, in vivo) was “approximately 2%”, the “increase of pharmacological availability” value [13, 15] was 3 times and the “increase of relative bioavailability” value [13, 15] was 23 times. The change of availability ([13]; with sodium glycocholate) was “no increase in availability”.

B2: OVA: ovalbumin (protein, UniProt P01012 2-386, looked up)
Ovalbumin: GSIGAASMEFCFDVFKELKVHHANENIFYCPIAIMSALAMVYLGAKDSTRTQINKVVRFDKLPGFGDSIEAQCGTSVNVHSSLRDILNQITKPNDVYSFSLASRLYAEERYPILPEYLQCVKELYRGGLEPINFQTAADQARELINSWVESQTNGIIRNVLQPSSVDSQTAMVLVNAIVFKGLWEKAFKDEDTQAMPFRVTEQESKPVQMMYQIGLFRVASMASEKMKILELPFASGTMSMLVLLPDEVSGLEQLESIINFEKLTEWTSSNVMEERKIKVYLPRMKMEEKYNLTSVLMAMGITDVFSSSANLSGISSAESLKISQAVHAAHAEINEAGREVVGSAEAGVDAASVSEEFRADHPFLFCIKHIATNAVLFFGRCVSP
In the case of B2, the “absorption into the blood circulation, of applied dose” value ([14]; first printed range) is given as 0.007-0.008% and the “absorption into the lymph circulation, of applied dose” value ([14]; second printed range) is given as 0.0007-0.002%.
